The NIST ThermoML archive (doi:10.1021/acs.jced.6b00169)

Settings: Fluid (supercritical or subcritical phases), isochoric method

FC(F)(F)/C=C\C(F)(F)F [(Z)-1,1,1,4,4,4-hexafluorobut-2-ene]
Settings	mass density [kg/m3]
444.5 K, 2907.5 kPa	532.1
444.5 K, 2918.3 kPa	589.2
445.48 K, 2948.7 kPa	410.1
445.48 K, 2955 kPa	451.8
445.49 K, 2960.5 kPa	496.8
445.49 K, 2967.6 kPa	556.1
445.49 K, 2979 kPa	589.2
445.5 K, 2963.5 kPa	532.1
446.47 K, 2992.8 kPa	410.1
446.47 K, 3039.9 kPa	589.2
446.48 K, 3003.8 kPa	451.8
446.49 K, 3019.2 kPa	532.1
446.49 K, 3024.7 kPa	556
446.5 K, 3013.3 kPa	496.8
447.47 K, 3036.6 kPa	410.1
447.49 K, 3052.3 kPa	451.8
447.49 K, 3075.5 kPa	532
447.49 K, 3102.7 kPa	589.1
447.5 K, 3083 kPa	556
447.51 K, 3065.9 kPa	496.8
448.47 K, 3080.1 kPa	410.1
448.48 K, 3099.7 kPa	451.7
448.49 K, 3131.1 kPa	532
448.49 K, 3165.1 kPa	589.1
448.5 K, 3117.9 kPa	496.7
448.5 K, 3140.9 kPa	556
449.46 K, 3123.1 kPa	410.1
449.48 K, 3147.7 kPa	451.7
449.49 K, 3187.7 kPa	532
449.5 K, 3170.6 kPa	496.7
449.5 K, 3200.1 kPa	556
449.5 K, 3229.7 kPa	589.1
450.46 K, 3166.1 kPa	410
450.48 K, 3195.5 kPa	451.7
450.5 K, 3223.3 kPa	496.7
450.5 K, 3259.2 kPa	555.9
450.5 K, 3293.6 kPa	589
450.51 K, 3244.9 kPa	532
451.47 K, 3209.5 kPa	410
451.48 K, 3243 kPa	451.7
451.49 K, 3357.7 kPa	589
451.5 K, 3275.9 kPa	496.7
451.5 K, 3318.3 kPa	555.9
451.51 K, 3300.8 kPa	531.9
452.47 K, 3252.2 kPa	410
452.48 K, 3290.8 kPa	451.7
452.49 K, 3328.2 kPa	496.6
452.49 K, 3378.2 kPa	555.9
452.49 K, 3422.9 kPa	589
452.5 K, 3358.3 kPa	531.9
453.47 K, 3294.8 kPa	410
453.48 K, 3200.2 kPa	348.3
453.49 K, 3338.4 kPa	451.6
453.49 K, 3381.2 kPa	496.6
453.49 K, 4021.4 kPa	734.4
453.49 K, 9923.8 kPa	962.6
453.5 K, 1586.1 kPa	87.6
453.5 K, 2978.8 kPa	261.1
453.5 K, 3415.5 kPa	531.9
453.5 K, 3438.5 kPa	555.9
453.5 K, 3477.4 kPa	589
453.5 K, 3489.4 kPa	589
453.5 K, 3654.8 kPa	659.5
453.5 K, 4584 kPa	789.8
453.5 K, 6552.2 kPa	883.1
453.51 K, 2439 kPa	167
453.51 K, 3355.4 kPa	473.8
453.51 K, 3423.1 kPa	534.1
453.52 K, 3308.4 kPa	416.3
463.47 K, 3811.6 kPa	451.7
463.48 K, 3548.1 kPa	348.1
463.49 K, 5796.3 kPa	789.4
463.5 K, 1644.5 kPa	87.5
463.5 K, 3221.4 kPa	261
463.5 K, 4145.4 kPa	588.7
463.5 K, 4465.6 kPa	659.2
463.5 K, 8195.5 kPa	882.7
463.51 K, 2573 kPa	166.9
463.51 K, 3856.7 kPa	473.6
463.51 K, 4003.3 kPa	533.8
463.52 K, 3741 kPa	416.1
463.84 K, 5039.9 kPa	734
473.46 K, 4282.9 kPa	451.5
473.49 K, 3889.2 kPa	347.9
473.49 K, 5297.9 kPa	658.9
473.49 K, 6084.9 kPa	733.7
473.49 K, 7031.2 kPa	789.1
473.5 K, 1702.6 kPa	87.5
473.5 K, 3458.3 kPa	260.9
473.5 K, 4828.4 kPa	588.4
473.5 K, 9855 kPa	882.3
473.51 K, 2705 kPa	166.8
473.51 K, 4169.1 kPa	416
473.51 K, 4592.6 kPa	533.6
473.52 K, 4360 kPa	473.3
483.45 K, 4753 kPa	451.3
483.48 K, 8280.1 kPa	788.7
483.49 K, 4225.7 kPa	347.8
483.49 K, 6143.2 kPa	658.6
483.5 K, 1760.4 kPa	87.5
483.5 K, 3690.6 kPa	260.8
483.5 K, 4863.2 kPa	473.1
483.5 K, 5186.3 kPa	533.3
483.5 K, 5522.5 kPa	588.1
483.51 K, 2834.3 kPa	166.8
483.51 K, 4596.7 kPa	415.8
483.51 K, 7145.4 kPa	733.3
493.49 K, 4559.3 kPa	347.6
493.5 K, 3920 kPa	260.6
493.5 K, 6223.9 kPa	587.8
493.51 K, 1817.2 kPa	87.4
493.51 K, 2962 kPa	166.7
493.51 K, 5368 kPa	472.9
503.5 K, 4890.2 kPa	347.4
503.51 K, 6930.9 kPa	587.6
